Data taken from PubChem BioAssay (NCI).
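In this assay, cells in 96-well plates receive the compound at five concentrations for 48 hours. Endpoints are linearly interpolated between the surrounding concentrations. At the GI50, growth is halved. TGI is the concentration that stops growth completely.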

Legend:
Assay in all cases: NCI-60 cell line screen, 48 h
KM20L2 colon = tested on: KM20L2 colon
HL-60(TB) leukemia = tested on: HL-60(TB) leukemia
UACC-257 melanoma = tested on: UACC-257 melanoma
NCI-H460 lung = tested on: NCI-H460 lung
SF-539 CNS = tested on: SF-539 CNS
OVCAR-3 ovarian = tested on: OVCAR-3 ovarian
SNB-78 CNS = tested on: SNB-78 CNS
TK-10 renal = tested on: TK-10 renal
OVCAR-4 ovarian = tested on: OVCAR-4 ovarian
SK-OV-3 ovarian = tested on: SK-OV-3 ovarian
M19-MEL melanoma = tested on: M19-MEL melanoma
NCI-H522 lung = tested on: NCI-H522 lung
DMS 114 small cell lung = tested on: DMS 114 small cell lung
SW-620 colon = tested on: SW-620 colon
UO-31 renal = tested on: UO-31 renal
LOX IMVI melanoma = tested on: LOX IMVI melanoma
LXFL 529 NSCLC = tested on: LXFL 529 NSCLC
COLO 205 colon = tested on: COLO 205 colon
NCI-H23 lung = tested on: NCI-H23 lung
MOLT-4 leukemia = tested on: MOLT-4 leukemia
SF-268 CNS = tested on: SF-268 CNS
EKVX NSCLC = tested on: EKVX NSCLC
DLD-1 colon = tested on: DLD-1 colon
CCRF-CEM leukemia = tested on: CCRF-CEM leukemia
M14 melanoma = tested on: M14 melanoma
MALME-3M melanoma = tested on: MALME-3M melanoma
786-0 renal = tested on: 786-0 renal
RPMI-8226 leukemia = tested on: RPMI-8226 leukemia
HOP-92 NSCLC = tested on: HOP-92 NSCLC
A549 NSCLC = tested on: A549 NSCLC
SK-MEL-2 melanoma = tested on: SK-MEL-2 melanoma
HT29 colon = tested on: HT29 colon
ACHN renal = tested on: ACHN renal
K-562 leukemia = tested on: K-562 leukemia
A498 renal = tested on: A498 renal
OVCAR-8 ovarian = tested on: OVCAR-8 ovarian
HCT-116 colon = tested on: HCT-116 colon
KM12 colon = tested on: KM12 colon
SNB-75 CNS = tested on: SNB-75 CNS
SNB-19 CNS = tested on: SNB-19 CNS
UACC-62 melanoma = tested on: UACC-62 melanoma
SK-MEL-28 melanoma = tested on: SK-MEL-28 melanoma
HCT-15 colon = tested on: HCT-15 colon
SN12C renal = tested on: SN12C renal
IGROV1 ovarian = tested on: IGROV1 ovarian
SK-MEL-5 melanoma = tested on: SK-MEL-5 melanoma
U251 CNS = tested on: U251 CNS
OVCAR-5 ovarian = tested on: OVCAR-5 ovarian
DMS 273 small cell lung = tested on: DMS 273 small cell lung

In the case of `[Co+2].[O-]c1ccccc1C=NCc1ccccc1.[O-]c1ccccc1C=NCc1ccccc1`, the GI50 (KM20L2 colon) is reported as greater than 100 µM, the TGI (KM20L2 colon) is reported as greater than 100 µM and the GI50 (HL-60(TB) leukemia) is reported as 7.85 µM. The TGI (HL-60(TB) leukemia) was 82.1 µM, the GI50 (UACC-257 melanoma) was 35.7 µM and the TGI (UACC-257 melanoma) was greater than 100 µM. For the same compound, the GI50 (NCI-H460 lung) was greater than 100 µM, the TGI (NCI-H460 lung) was greater than 100 µM and the GI50 (SF-539 CNS) was 16.3 µM. For the same compound, the TGI (SF-539 CNS) was greater than 100 µM, the GI50 (OVCAR-3 ovarian) was 8.06 µM and the TGI (OVCAR-3 ovarian) was greater than 100 µM. The GI50 (SNB-78 CNS) was greater than 100 µM, the TGI (SNB-78 CNS) was greater than 100 µM and the GI50 (TK-10 renal) was greater than 100 µM. The TGI (TK-10 renal) was greater than 100 µM, the GI50 (OVCAR-4 ovarian) was 53.8 µM and the TGI (OVCAR-4 ovarian) was greater than 100 µM. For the same compound, the GI50 (SK-OV-3 ovarian) was greater than 100 µM, the TGI (SK-OV-3 ovarian) was greater than 100 µM and the GI50 (M19-MEL melanoma) was 39.8 µM. The TGI (M19-MEL melanoma) was greater than 100 µM, the GI50 (NCI-H522 lung) was 45.7 µM and the TGI (NCI-H522 lung) was greater than 100 µM. The GI50 (DMS 114 small cell lung) was 28.7 µM, the TGI (DMS 114 small cell lung) was greater than 100 µM and the GI50 (SW-620 colon) was 41.4 µM. For the same compound, the TGI (SW-620 colon) was greater than 100 µM, the GI50 (UO-31 renal) was 17.1 µM and the TGI (UO-31 renal) was 82.9 µM. It also gave a GI50 (LOX IMVI melanoma) of 77.2 µM, a TGI (LOX IMVI melanoma) greater than 100 µM and a GI50 (LXFL 529 NSCLC) of 17.2 µM. For the same compound, the TGI (LXFL 529 NSCLC) was greater than 100 µM, the GI50 (COLO 205 colon) was 91.5 µM and the TGI (COLO 205 colon) was greater than 100 µM. It also gave a GI50 (NCI-H23 lung) of 51.1 µM, a TGI (NCI-H23 lung) greater than 100 µM and a GI50 (MOLT-4 leukemia) of 6.37 µM. It also gave a TGI (MOLT-4 leukemia) greater than 100 µM, a GI50 (SF-268 CNS) of 11.6 µM and a TGI (SF-268 CNS) greater than 100 µM. For the same compound, the GI50 (EKVX NSCLC) was 56.6 µM, the TGI (EKVX NSCLC) was greater than 100 µM and the GI50 (DLD-1 colon) was 38.8 µM. For the same compound, the TGI (DLD-1 colon) was greater than 100 µM, the GI50 (CCRF-CEM leukemia) was 6.92 µM and the TGI (CCRF-CEM leukemia) was greater than 100 µM. The GI50 (M14 melanoma) was 28.3 µM, the TGI (M14 melanoma) was greater than 100 µM and the GI50 (MALME-3M melanoma) was 21.1 µM. For the same compound, the TGI (MALME-3M melanoma) was greater than 100 µM, the GI50 (786-0 renal) was 34.7 µM and the TGI (786-0 renal) was greater than 100 µM. For the same compound, the GI50 (RPMI-8226 leukemia) was 31.6 µM, the TGI (RPMI-8226 leukemia) was greater than 100 µM and the GI50 (HOP-92 NSCLC) was 11.1 µM. The TGI (HOP-92 NSCLC) was 92.4 µM, the GI50 (A549 NSCLC) was greater than 100 µM and the TGI (A549 NSCLC) was greater than 100 µM. The GI50 (SK-MEL-2 melanoma) was 55.7 µM, the TGI (SK-MEL-2 melanoma) was greater than 100 µM and the GI50 (HT29 colon) was 82.6 µM. The TGI (HT29 colon) was greater than 100 µM, the GI50 (ACHN renal) was 31.8 µM and the TGI (ACHN renal) was greater than 100 µM. For the same compound, the GI50 (K-562 leukemia) was 32.8 µM, the TGI (K-562 leukemia) was greater than 100 µM and the GI50 (A498 renal) was greater than 100 µM. The TGI (A498 renal) was greater than 100 µM, the GI50 (OVCAR-8 ovarian) was 99.2 µM and the TGI (OVCAR-8 ovarian) was greater than 100 µM. For the same compound, the GI50 (HCT-116 colon) was 10.6 µM, the TGI (HCT-116 colon) was greater than 100 µM and the GI50 (KM12 colon) was 67.8 µM. It also gave a TGI (KM12 colon) greater than 100 µM, a GI50 (SNB-75 CNS) of 21.3 µM and a TGI (SNB-75 CNS) of 69.6 µM. The GI50 (SNB-19 CNS) was 59.4 µM, the TGI (SNB-19 CNS) was greater than 100 µM and the GI50 (UACC-62 melanoma) was 21.1 µM. For the same compound, the TGI (UACC-62 melanoma) was greater than 100 µM, the GI50 (SK-MEL-28 melanoma) was 6.9 µM and the TGI (SK-MEL-28 melanoma) was greater than 100 µM. The GI50 (HCT-15 colon) was 26.3 µM, the TGI (HCT-15 colon) was greater than 100 µM and the GI50 (SN12C renal) was 80.1 µM. For the same compound, the TGI (SN12C renal) was greater than 100 µM, the GI50 (IGROV1 ovarian) was 64.6 µM and the TGI (IGROV1 ovarian) was greater than 100 µM. It also gave a GI50 (SK-MEL-5 melanoma) of 33.7 µM, a TGI (SK-MEL-5 melanoma) greater than 100 µM and a GI50 (U251 CNS) of 47.2 µM. The TGI (U251 CNS) was greater than 100 µM, the GI50 (OVCAR-5 ovarian) was 62.7 µM and the TGI (OVCAR-5 ovarian) was greater than 100 µM. The GI50 (DMS 273 small cell lung) was 95.8 µM and the TGI (DMS 273 small cell lung) was greater than 100 µM.
